The results in this text go back to patent US12029738B2, “Antiproliferative compounds and methods of use thereof” (Celgene Corporation, priority 2017, dated 2024).

Assay [1] concerns MM cell lines H929-1051, KMS11, KMS-12PE, L363, OPM-P10, RPMI8226. Kind of assay: Combination with small molecule inhibitors, synergy (Cell Titer-Glo, 3 days). It is filed as cell-based, human. The conditions noted are these: Highest Single Agent method, 6 MM cell lines. On the procedure:
The effect of combining treatment with Compound 2 and small molecule inhibitors with various mechanisms was evaluated in a panel of MM cell lines. Thirteen small molecule inhibitors were selected for combination studies with Compound 2 based on their preclinical and/or activity against MM. The cell lines H929-1051, KMS11, KMS-12PE, L363, OPM-P10, and RPMI8226 were selected for this study to represent the different genetic clustering groups across MM cell lines. […] Combination agents were dosed in a 6 point dose-response curve (DRC) at a 1:3 dilution, Compound 2 was dosed in a 10 point DRC, also at a 1:3 dilution. The combination experiments were run twice, each time with replicate data on separate plates. Compounds were pre-spotted into the appropriate wells of 384-well plates using an acoustic dispenser. All MM cell lines were cultured in an incubator at 37° C. with 5% CO2 using the indicated cell culture media containing 1× Penicillin-Streptomycin. Cells were added to the compound containing 384-well plates using a Multidrop Combi Reagent Dispenser and allowed to incubate for 3 days at 37° C. with 5% CO2. After 3 days, cells were assessed for their level of ATP content via Cell Titer-Glo measured on a luminescence detector (PerkinElmer Envision).
The Highest Single Agent (HAS) method was used to detect synergy in the dose response curve data. Combinations were analyzed from a response surface perspective. A statistical framework (Van Der Borght, K., et al., BIGL: Biochemically Intuitive Generalized Loewe null model for prediction of the expected combined effect compatible with partial agonism and antagonism; Scientific Reports, 7 (1), 17935-1-17935-9 (2017)) was incorporated into the analysis on top of the HAS null model with two statistical tests: 1) Complete response surface differs from null model, 2) Single well differs from null model.
On the technique in general: ATP-based viability assays read luminescence as a measure of living cells.

The next assay relates to K562 cells. Kind of assay: Coculture of compound-treated IL-2-activated PBMCs with K562 cells. The note with it: Homo sapiens, K562; IL-2-activated PBMCs treated 72 h; 4 h coculture; read-out: IC50 of compound-treated PBMCs for direct K562 cell killing. In kind it is cell-based, human. On the procedure: Coculture Experiments with Peripheral Blood Mononuclear Cells and K562 Cells. Methods: Human Peripheral Blood Mononuclear Cell (PBMC) Preparation: PBMCs isolated from healthy donors were cultured in RPMI 1640 medium with 10% FBS at a density of 1×10^6 cells/mL.
Cell Culture: K562 cells were kept in log phase, and cell density and viability were monitored by trypan blue exclusion using the Vi-CELL® XR cell viability analyzer (Beckman Coulter, Brea, CA).
Assay Procedures: Freshly isolated human PBMCs were cultured with recombinant IL-2 at concentration of 20 units/mL for 72 h. Peripheral blood mononuclear cells were then spun down and re-suspended in fresh RPMI complete medium to 2×10^6 cells/mL. Cells were then treated with DMSO or compounds at the indicated concentrations and incubated for an additional 72 h. The PBMCs were then washed twice in fresh RPMI complete medium prior to coculture. K562 cells were re-suspended to a cell density of 1×10^6/mL and stained with 1 μM CellTrace CFSE according to manufacturer's instructions. The labeled K562 cells were then seeded into a 96-well round bottom plate at 1×10^5 cells/well. Peripheral blood mononuclear cells were then transferred into the same 96-well plate at a 1:15 ratio, in triplicate and incubated at 37° C. for 4 h. Specific target cell lysis by PBMC cells was measured using Annexin V-fluorescein isothiocyanate (FITC) and propidium iodide (PI) according to manufacturer's instructions and samples were run on the FACS Array scan. Non-labeled K562 cells, CellTrace CFSE-labeled K562 cells, and Annexin V-FITC- and PI labeled untreated K562 cells were included in each assay as controls.

For a further assay, the system named is OPM2. Kind of assay: PBMC and MM cell treatment assay (single culture vs co-culture). It is filed as cell-based. The note with it: Homo sapiens, OPM-2, OPM2, read-out: Immune-mediated Cell Killing IC50. Here is the method: (§1) PBMC and MM Cell Treatment Assay Procedure. Ninety-six-well dishes were pre-coated with anti-CD3 antibody (OKT3, 3 μg/mL) and incubated at 4° C. overnight before the start of the experiment. Frozen PBMC donor cells were thawed at 37° C. for 2 minutes in RPMI medium with 10% FBS and cell counts and viability were measured on the Vi-CELL analyzer. Peripheral blood mononuclear cells were washed and diluted to 1×10^6 cells/mL and dispensed into the compound-treated plates in a total volume of 200 μL. Cells were incubated with compounds for 2 h before being transferred onto anti-CD3-coated plates and incubated for an additional 72 h. At the same time, MM cell lines (NCI-H929, H929-1051, OPM2, OPM2-P10) were diluted to a final concentration of 0.1×10^6 cells/mL and labeled with CellTrace CFSE according to manufacturer's instructions. Multiple myeloma cell lines were then dispensed into compound-treated plates at a total volume of 200 μL and incubated for 72 h. After 72 h, the PBMCs and MM cells were counted and transferred into a U-bottom 96-well plate at a final T:E ratio of 1:5. After 24 h coculture, specific target cell lysis by PBMC cells was measured using Annexin V-AF647 and 7-AAD according to manufacturer's instructions and samples were run on the Attune NxT Cytometer.
(§2) Because preincubation of immune cells with Compound 2 enhanced the targeting and lysing of MM cells, the effect of preincubation of MM cells with Compound 2 on their susceptibility to immune-mediated killing was also explored (FIG. 16A, FIG. 16B, FIG. 16C, and FIG. 16D, Table 12). Four MM cell lines and anti-CD3 antibody-activated PBMCs were separately preincubated with Compound 2, lenalidomide, or pomalidomide for 72 h. When anti-CD3 antibody-activated PBMCs and MM lines were both pretreated with Compound 2, lenalidomide, or pomalidomide, followed by co-culture, the effects on the PBMC-induced MM cell lysis were enhanced both in the potency and magnitude of the killing response. […] For the pomalidomide-resistant OPM2-P10 cell line, Compound 2 treatment of the MM cells enhanced the immune-mediated killing by ˜3000-fold (Table 12).

The subject of the next assay is NCI-H929. The assay is described as above. The note with it: Homo sapiens, NCI-H929, NCI-H929, read-out: Immune-mediated Cell Killing IC50. In kind it is cell-based, human. Here is the method: as §1, §2
A further assay deals with OPM2-P10. Described as above. It is filed as cell-based, human. The note with it: Homo sapiens, PBMC, read-out: Immune-mediated Cell Killing IC50. Here is the method:
as §1, §2

For another assay, the system named is H929-1051. The description is as above. It is filed as cell-based, human. The note with it: Homo sapiens, PBMC, H929-1051, read-out: Immune-mediated Cell Killing IC50. On the procedure:
as §1, §2

For a further assay, the system named is RPMI-8226. The description is as above. In kind it is cell-based. The note with it: Homo sapiens, RPMI-8226, RPMI-8226, read-out: Immune-mediated Cell Killing IC50.
The test system of assay [2] is non-selective α1 adrenergic receptor. Kind of assay: α1 adrenergic receptor radioligand binding ([3H]prazosin). The conditions noted are these: 10 μM; rat cerebral cortex; 0.25 nM [3H]prazosin. Here is the method:
(§3) α1 Adrenergic and Dopamine D2 Receptors. Methods: Binding and functional assays for α1 adrenergic and dopamine D2 receptors were performed by Eurofins Cerep according to their methods.
α1 Adrenergic Receptor. Binding at 10 μM. The binding assay evaluated the affinity of test article for the non-selective α1 adrenergic receptor in rat cerebral cortex. Membrane homogenates of cerebral cortex were incubated in duplicate for 60 minutes at room temperature with 0.25 nM [^3H]prazosin in the absence or presence of test articles at 10 μM. After the incubation period, samples were filtered through glass fiber filters, the filters dried and then counted for radioactivity using a scintillation counter. Results are expressed as mean percent inhibition of control radioligand binding.
Binding IC50. […] Compound A was tested at 0.01-30 μM. […] Compound 1 and Compound 2, the S-enantiomer of Compound 1, were assayed at 0.03-100 μM. Radioactivity was measured as described above. The IC50 was defined as the concentration causing a half-maximum inhibition of control specific binding.

The target of another assay is T1, dopamine D2S receptor (Homo sapiens, UniProt P14416).
T1 construct: host or cells: HEK-293 cells (membrane homogenates)
Put plainly: Dopamine D2S receptor radioligand binding (HEK-293). The conditions noted are these: 10 μM. On the procedure: as §3
Dopamine D2 Receptor. Binding at 10 μM. The binding assay evaluated the affinity of test articles for the dopamine D2 receptor in transfected human embryonic kidney (HEK)-293 cells. For determining the binding in the D2S receptor assay, test article was incubated with 0.3 nM [^3H] methylspiperone or 1 nM [^3H] 7-hydroxy-2-N,N-dipropylaminotetralin (7-OH-DPAT). [3H] Methylspiperone at 0.3 nM also was used as control ligand in the D2L binding assay. Cell membrane homogenates were incubated in duplicate at room temperature for 60 minutes with ligand in the absence or presence of test articles at 10 μM. After the incubation period, samples were filtered through glass fiber filters, the filters dried and then counted for radioactivity using a scintillation counter. Results are expressed as mean percent inhibition of control radioligand binding.
Binding IC50. To determine the binding IC50 in the D2 receptor assays, HEK-293 were tested as described above but with varying concentrations of test article. Compound A was tested at 0.01-30 μM in the D2S radioligand binding assay. […] Compound 1 was assayed at 0.03-100 μM in both the D2S and D2L assays, while Compound 2 was tested at 0.03-100 μM in the D2S assay and 0.01-100 μM in the D2L assays. The IC50 was defined as the concentration causing a half-maximum inhibition of control specific binding.

Where two headings read alike, the source gives them in different places.

T1 sequence (P14416 1-414 isoform P14416-2): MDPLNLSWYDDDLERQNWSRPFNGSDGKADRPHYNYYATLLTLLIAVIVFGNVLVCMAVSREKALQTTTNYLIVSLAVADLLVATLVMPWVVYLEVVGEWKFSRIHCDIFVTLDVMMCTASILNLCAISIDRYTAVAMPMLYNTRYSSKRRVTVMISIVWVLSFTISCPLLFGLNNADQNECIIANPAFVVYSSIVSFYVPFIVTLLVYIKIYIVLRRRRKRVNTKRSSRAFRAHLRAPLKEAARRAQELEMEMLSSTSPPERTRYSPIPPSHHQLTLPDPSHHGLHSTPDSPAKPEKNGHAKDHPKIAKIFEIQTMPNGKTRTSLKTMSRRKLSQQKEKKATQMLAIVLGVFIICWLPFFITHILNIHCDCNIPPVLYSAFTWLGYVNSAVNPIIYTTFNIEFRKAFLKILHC

In the case of `Cc1sc2c(c1C)C(c1ccc(Cl)cc1)=N[C@@H](CC(=O)Nc1ccc(O)cc1)c1nnc(C)n1-2` [birabresib], the “synergistic activity in combination with Compound 2 (cell lines)” value (“synergistic activity in combination” for short) in assay [1] was “synergistic activity in the MM cells”.

Regarding `Nc1cccc2c1CN(C1CCC(=O)NC1=O)C2=O` (stereo not drawn) [Lenalidomide, lenalidomide], the IC50 is 20 nM with K562 cells; 1720 nM with OPM2 (Co-culture with PBMCs); more than 10000 nM in the assay with OPM2 (Single culture); 317 nM with NCI-H929 (Co-culture with PBMCs); more than 10000 nM in the assay on NCI-H929 (Single culture); 8090 nM in the assay on OPM2-P10 (Co-culture with PBMCs). Further, the IC50 in the assay with OPM2-P10 (Single culture) is more than 10000 nM; in the assay with H929-1051 (Co-culture with PBMCs), 878 nM; with H929-1051 (Single culture) it was more than 10000 nM; in the assay with RPMI-8226 (Co-culture with PBMCs), 124 nM; with RPMI-8226 (Single culture) it was more than 10000 nM.

As to `Cn1cc(-c2cc(S(C)(=O)=O)ccc2OCC2CC2)c2ccccc2c1=O` [Compound D, 4-[2-(cyclopropylmethoxy)-5-(methanesulfonyl)phenyl]-2-methylisoquinolin-1(2H)-one], in [1], the “synergistic activity in combination” value is on record as “synergistic activity in the MM cells”.

Take `O=C(CCCCCCNC(=O)c1cnc(N(c2ccccc2)c2ccccc2Cl)nc1)NO` [ACY241]: the “synergistic activity in combination” value in [1] is recorded as “synergistic in L363/OPM2-P10”.

`O=C1CCC(N2Cc3c(OCc4ccc(CN5CCN(c6ccc(F)cc6)CC5)cc4)cccc3C2=O)C(=O)N1` (racemic) [Ex. 5.273]: the “Adrenergic α1 (non-selective) % Inhibition (10 μM)” value in assay [2] was found to be 100.3%. The “Dopamine D2S % Inhibition (10 μM)” value at dopamine D2S receptor came to 94.7%.

`O=C1CCC(N2Cc3c(OCc4ccc(CN5CCN(c6ccccc6)CC5)cc4)cccc3C2=O)C(=O)N1` (racemic) [Ex. 5.229]: the “Dopamine D2S % Inhibition (10 μM)” value on dopamine D2S receptor amounted to 98.7%.

As for `COc1ccc(-c2c(-c3ccc(C#N)c(F)c3)nc(N3CCC(N)CC3)n(C)c2=O)cc1F` [Compound E, 4-[2-(4-amino-piperidin-1-yl)-5-(3-fluoro-4-methoxy-phenyl)-1-methyl-6-oxo-1,6-dihydropyrimidin-4-yl]-2-fluoro-benzonitrile], the “synergistic activity in combination” value in assay [1] is “synergistic in L363 and KMS12-PE cells”.

In the case of `CO[C@H]1/C=C/C[C@H](C)[C@@H](C)S(=O)(=O)NC(=O)c2ccc3c(c2)N(C[C@@H]2CC[C@H]21)C[C@@]1(CCCc2cc(Cl)ccc21)CO3` [AMG176], the “synergistic activity in combination” value in assay [1] is “synergistic activity in three cell lines (KMS11, KMS12-PE, L363)”.

As for `O=C1CCC(N2C(=O)c3cccc(OCc4ccc(CN5CCN(c6ccc(F)cc6)CC5)cc4)c3C2=O)C(=O)N1` (racemic) [Ex. 5.289], the “Dopamine D2S % Inhibition (10 μM)” value at dopamine D2S receptor was found to be 92.4%.

For the molecule MIK665, in assay [1], the “synergistic activity in combination” value is given as “did not show significant synergy in the 6 MM cell lines tested”.

In general, IC50 refers to the concentration that inhibits the measured activity by half.
